Measurements taken from US20250101062A1, “ANTIMICROBIAL PEPTIDES” (Board of Regents of the University of Nebraska, priority 2023, published 2025).
Read-outs that look alike come from different tables or passages of the source. Where no end group is shown, it is not given here.

Key:
S. aureus USA300 LAC = experiment: microbe, parasite or virus in culture; format: cell-based, Staphylococcus aureus
Procedure, shortened: (§1)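 Broth microdilution with twofold peptide dilutions, using exponential-phase bacteria at about 10^5 CFU/mL in MHB, incubated overnight at 37 °C and read at OD600. MIC, reported as a range, is the peptide concentration with no growth. Some tests used diluted MHB/TSB/LB, adjusted pH, or added NaCl or human serum.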

E. coli E423-17 = format: cell-based, Escherichia coli; conditions: E423-17
S. epidermidis 1457 = experiment: microbe, parasite or virus in culture; format: cell-based, Staphylococcus epidermidis; conditions: read-out: Antimicrobial activity (MIC) S. epidermidis 1457
Procedure, shortened: (§2)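 Peptides twofold serially diluted against exponential-phase resistant clinical isolates at ~10^5 CFU/mL in MHB (also diluted MHB, TSB or LB in one protocol), CLSI-based broth microdilution. Incubated overnight at 37° C., OD 600 nm read; MIC taken as lowest concentration without growth, reported as ranges.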

K. pneumoniae E406-17 = format: cell-based, Klebsiella pneumoniae
Procedure, shortened: as §2

A. baumannii B28-16 = format: cell-based, Acinetobacter baumannii; conditions: B28-16
Procedure, shortened: as §2

P. aeruginosa E411-17 = experiment: microbe, parasite or virus in culture; format: cell-based, Pseudomonas aeruginosa; conditions: for MIC: read-out: Antimicrobial activity (MIC)
Procedure, shortened: as §1

P. aeruginosa E416-17 = format: cell-based, Pseudomonas aeruginosa
Procedure: Peptide activity against bacteria were tested using the CLSI standard procedure with minor modifications (Clinical and Laboratory Standards Institute (2018) Performance standards for antimicrobial susceptibility testing, 9th ed.; Mishra, et al. (2019) Proc. Natl. Acad. Sci., 116(27):13517-13522). In brief, a peptide concentration gradient with twofold dilution was made in the 96-well polystyrene microplate at 10 μL per well. Bacteria were grown to the exponential phase (i.e., optical density at 600 nm≈0.5), diluted to ˜10^5 CFU/mL in MHB, and partitioned into the 96-well microplate at 90 μL per well. The microplates were incubated at 37° C. overnight and read on a ChroMate® 4300 Microplate Reader at 600 nm (GMI, Ramsey, MN). The peptide concentration in the wells without bacterial growth is the minimal inhibitory concentration (MIC). As the convention, MIC values were represented as ranges.

human red blood cells = experiment: Hemolytic assay; format: cell-based; conditions: red cells of human
Procedure: The hemolytic effects of peptides were evaluated using a method with minor modifications (Lakshmaiah Narayana, et al. (2021) ACS Infect. Dis., 7:1795-1808). Human red blood cells (hRBCs, UNMC Blood Bank) were washed (3×) with blood bank saline (isotonic solution 0.90% w/v, Fisher). Cells were diluted to 2% using the saline solution, and aliquots of 90 μL were added to a 96-well polystyrene microplate containing 10 μL of serially diluted peptide solutions. After incubation at 37° C. for 1 hour, plates were centrifuged at 500 g for 5 minutes. Aliquots of the supernatant were transferred to a 96-well microplate. The amount of hemoglobin released was measured at 545 nm by using a ChroMate™ microplate reader. […] HC50 is defined as the concentration of the peptide that caused 50% lysis.
The hemolytic effects of peptides were evaluated (Narayana, et al. (2020) Proc. Natl. Acad. Sci., 117(32):19446-9454). In brief, human red blood cells (UNMC Blood Bank) were washed (3×) and diluted to 2% using the saline solution. Aliquots of 90 μL were mixed with 10 μL of serially diluted peptide solutions. After incubation at 37° C. for 1 hour, plates were centrifuged at 500 g for 5 minutes and aliquots of the supernatant were transferred to a new 96-well microplate to measure the amount of hemoglobin released at 545 nm (relative to 1% Triton® X-100) using a ChroMate® Microplate Reader.

[1] = Cell viability assay (MTS); format: cell-based, human; conditions: human; 24 h; read-out: 50% lethal concentration (LC50)
Procedure: Human keratinocyte HaCaT cells were grown in DMEM/high glucose (Hyclone, UT) containing 10% fetal bovine serum (Mediatech, Corning, Manassas, VA). […] The mixture was incubated at 37° C. in 5% CO2 for 24 hours.
(§3) HepG2 cells were cultured in ATCC-formulated Eagle's Minimum Essential Medium with 10% FBS. A549 cells were grown in ATCC-formulated F-12K Medium containing 10% FBS.

Cytotoxicity assay (MTS) = format: cell-based; conditions: human, HepG2 cells, read-out: LC50
Procedure: as §3

RWKRFLRNWV-NH2 [RIK-10+]
MIC S. aureus USA300 (S. aureus USA300 LAC; USA300): 16 to 32 µM
MIC (S. aureus USA300 LAC; USA300, pH 6.21, read-out: Antimicrobial activity (MIC)): >32 µM
MIC (S. aureus USA300 LAC; USA300, pH 7.22, read-out: Antimicrobial activity (MIC)): 16 µM
MIC (S. aureus USA300 LAC; USA300, pH 8.13, read-out: Antimicrobial activity (MIC)): 8 µM
MIC (S. aureus USA300 LAC; USA300, read-out: Antimicrobial activity (MIC)): > 32 µM
MIC (S. aureus USA300 LAC; USA300, read-out: Antimicrobial activity (MIC) S. aureus USA300): 16 µM
Antimicrobial activity (MIC) E. coli E423-17 (E. coli E423-17): 4 µM
MIC E. coli E423-17 (E. coli E423-17): 4 to 8 µM
MIC (S. epidermidis 1457): >32 µM
MIC K. pneumoniae E406-17 (K. pneumoniae E406-17): 32 µM
Antimicrobial activity (MIC) A. baumannii B28-16 (A. baumannii B28-16): 8 µM
Antimicrobial activity (MIC) P. aeruginosa E411-17 (P. aeruginosa E411-17; E411-17): 4 µM
MIC (P. aeruginosa E411-17; E411-17, pH 6.21): 8 µM
Antimicrobial activity (MIC) (P. aeruginosa E411-17; E411-17, pH 7.22): 4 to 8 µM
MIC (P. aeruginosa E411-17; E411-17, pH 8.13): 4 µM
MIC (P. aeruginosa E411-17; E411-17): >32 µM
MIC P. aeruginosa E416-17 (P. aeruginosa E416-17): 4 µM
Hemolysis (HC10), 10% hemolytic concentration (human red blood cells): 220 µM
CC50 at 24 h [1]: 100 µM
CC50 at 24 h (Cytotoxicity assay (MTS)): 100 µM
